# Experiments:
# [1] = molecular target: αvβ3 integrin (Homo sapiens, UniProt P05106+P06756); experiment: Assay for the inhibition of αvβ3 integrin binding (vitronectin as ligand); set-up: purchased Chemicon International, Inc., USA; conditions: inhibition of specific binding of biotinylated human vitronectin to immobilized αvβ3 integrin
# Method: Experiment 1: Assay for the Inhibition of αvβ3 integrin binding
# This experiment was carried out based on the method described in […].
# Purified human αvβ3 integrin (Chemicon International, Inc., USA) was adjusted to a concentration of 1 μg/ml with TBS^++ [20 mM Tris-HCl (pH 7.4), 150 mM NaCl, 1 mM CaCl2, 1 mM MgCl2], and the diluted solution was added to plates (Labsystems, Finland) at 50 μl/well. The plate was left at 4° C. overnight for immobilization of the αvβ3 integrin. All subsequent steps were done at 25° C., and the procedure for each well was described hereafter.
# The solution was discarded, and then 200 μl of TBS^++ containing 1% BSA (Wako Pure Chemical Industries, Ltd., Japan) was added to the well and left for one hour for blocking. The well was washed with a wash solution (TBS^++ containing 0.01% Tween 20) 4 times, and 50 μl of a reaction solution (TBS^++ containing 0.1% BSA and 0.01% Tween 20) was added to the well. Subsequently, 25 μl of a test compound solution adjusted to each concentration with the reaction solution was added, and then mixed with 25 μl of biotinylated (Amersham Pharmacia Biotech, UK) human vitronectin (Gibco BRL, USA) adjusted to 0.4 μg/ml with the reaction solution. The mixture was reacted for 2 hours. After washing 4 times with the wash solution, 100 μl of peroxidase-labeled streptoavidin (Amersham Pharmacia Biotech, UK) diluted 1:500 with the reaction solution was added to the well. Following 30 minutes reaction, the well was washed 4 times with the wash solution, and 100 μl of a TMB substrate solution (Bio-Rad Laboratories, USA) was added to the well. Color was developed for 20 minutes and the reaction was stopped by adding 100 μl of 0.5 M sulfuric acid.
# (§1) The absorbance at 450 nm was measured with a plate reader (Molecular Devices, USA) to obtain a total binding. To obtain a nonspecific binding, EDTA adjusted to 20 mM with the reaction solution was added instead of the test compound solution. A specific binding was calculated by subtracting the nonspecific binding from the total binding.
# [2] = molecular target: T1, αIIbβ3 integrin (Homo sapiens, UniProt P05106+P08514); experiment: Assay for the inhibition of αIIbβ3 integrin binding (fibrinogen as ligand, integrin captured from platelet lysate); conditions: inhibition of specific binding of biotinylated fibrinogen to αIIbβ3 integrin from human platelet lysate
# T1 construct: from tissue; host or cells: human platelets (Triton X-100 lysate)
# T1 sequence (P08514 32-887 limits assumed): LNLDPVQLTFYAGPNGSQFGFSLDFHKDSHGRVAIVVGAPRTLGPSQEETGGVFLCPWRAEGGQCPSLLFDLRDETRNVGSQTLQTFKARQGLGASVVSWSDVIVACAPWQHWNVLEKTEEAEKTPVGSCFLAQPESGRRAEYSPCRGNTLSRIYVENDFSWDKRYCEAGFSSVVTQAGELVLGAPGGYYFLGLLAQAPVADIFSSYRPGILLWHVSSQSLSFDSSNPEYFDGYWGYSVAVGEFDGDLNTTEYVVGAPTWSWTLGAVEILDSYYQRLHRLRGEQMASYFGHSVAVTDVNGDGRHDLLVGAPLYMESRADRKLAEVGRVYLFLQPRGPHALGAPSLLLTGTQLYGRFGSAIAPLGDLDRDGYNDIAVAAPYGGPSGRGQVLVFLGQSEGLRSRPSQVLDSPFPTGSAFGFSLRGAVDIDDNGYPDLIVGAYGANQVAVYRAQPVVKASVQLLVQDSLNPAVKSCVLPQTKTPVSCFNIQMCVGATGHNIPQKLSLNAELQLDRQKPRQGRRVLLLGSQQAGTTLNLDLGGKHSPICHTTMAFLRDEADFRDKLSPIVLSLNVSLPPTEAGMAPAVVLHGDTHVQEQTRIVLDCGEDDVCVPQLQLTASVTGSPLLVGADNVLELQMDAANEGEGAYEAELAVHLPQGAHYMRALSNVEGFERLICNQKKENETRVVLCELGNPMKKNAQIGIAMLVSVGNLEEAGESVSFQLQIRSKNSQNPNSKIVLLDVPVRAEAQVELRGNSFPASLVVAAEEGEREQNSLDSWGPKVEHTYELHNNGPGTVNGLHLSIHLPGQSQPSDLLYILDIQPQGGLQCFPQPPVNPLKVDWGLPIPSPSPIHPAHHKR
# T1 sequence (P08514 891-1039 partner limits assumed): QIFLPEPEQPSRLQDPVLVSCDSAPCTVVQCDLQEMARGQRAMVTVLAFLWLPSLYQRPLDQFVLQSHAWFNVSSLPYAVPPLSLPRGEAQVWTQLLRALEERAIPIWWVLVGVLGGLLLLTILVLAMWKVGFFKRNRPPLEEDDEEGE
# T1 sequence (P05106 27-788): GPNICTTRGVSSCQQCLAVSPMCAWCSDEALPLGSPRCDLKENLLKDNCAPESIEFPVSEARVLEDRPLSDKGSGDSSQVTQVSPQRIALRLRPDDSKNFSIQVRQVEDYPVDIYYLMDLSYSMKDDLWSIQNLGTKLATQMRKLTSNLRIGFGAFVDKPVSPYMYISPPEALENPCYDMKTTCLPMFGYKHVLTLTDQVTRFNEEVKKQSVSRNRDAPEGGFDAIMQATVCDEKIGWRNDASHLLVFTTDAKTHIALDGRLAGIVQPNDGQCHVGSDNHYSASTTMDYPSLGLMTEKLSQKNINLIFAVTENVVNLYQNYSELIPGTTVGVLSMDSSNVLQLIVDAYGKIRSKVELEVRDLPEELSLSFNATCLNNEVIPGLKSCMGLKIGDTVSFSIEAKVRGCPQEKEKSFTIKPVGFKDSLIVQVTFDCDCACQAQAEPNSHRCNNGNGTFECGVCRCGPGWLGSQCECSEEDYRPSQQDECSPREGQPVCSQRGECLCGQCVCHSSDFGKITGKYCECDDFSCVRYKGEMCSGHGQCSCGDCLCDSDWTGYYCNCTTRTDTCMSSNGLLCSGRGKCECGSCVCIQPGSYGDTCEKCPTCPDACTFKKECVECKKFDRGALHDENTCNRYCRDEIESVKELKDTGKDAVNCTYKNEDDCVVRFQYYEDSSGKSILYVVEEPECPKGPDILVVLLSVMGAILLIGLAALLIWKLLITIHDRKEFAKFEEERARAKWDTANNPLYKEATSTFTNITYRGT
# Method: Experiment 2: Assay for the Inhibition of αIIbβ3 Integrin Binding
# This experiment was carried out based on the method described in Thromb. Haemostasis, 75, 339 (1996), Blood, 93, 2559 (1999), using fibrinogen as a ligand. According to the method described in the above literatures, assay for the inhibition of αIIbβ3 integrin binding can be achieved by capturing αIIbβ3 integrin from platelet lysate with the use of an activated antibody against αIIbβ3 integrin.
# Human platelets were isolated in a conventional manner. At 25° C., the isolated platelets were adjusted to a concentration of 1.25×10^9/ml with TBS+[50 mM Tris-HCl (pH 7.4), 150 mM NaCl, 2 mM CaCl2], and then ⅛ volume of TBS^+ containing 2 mM leupepsin and 10 mM PMSF was added and stirred gently. Nest, 1/9 volume of TBS+ containing 10% Triton X-100 was added and stirred gently. After standing on ice for 30 minutes, a platelet lysate was prepared from the mixture by discarding the insoluble fraction with centrifugation (10,000 g, 15 minutes).
# Anti-mouse IgG goat antibody (Jackson Immunoresearch Laboratories, Inc., USA) was adjusted to a concentration of 5 μg/ml with sodium carbonate buffer (pH 9.6) and added to plates at 50 μl/well. The plate was left at 4° C. overnight for immobilization of the antibody. All subsequent steps were done at 25° C., and the procedure for each well was described hereafter.
# The well was washed once with TBS^+, and then 200 μl of TBS^+ containing 5% BSA was added to the well and left for one hour for blocking. The well was washed with a reaction solution (TBS^+ containing 0.1% BSA and 0.05% Triton X-100) 4 times, and then 50 μl of anti-human αIIbβ3 integrin activated monoclonal antibody (TAKARA SHUZO CO., LTD, Japan, PT25-2 strain) adjusted to 5 μg/ml with the reaction solution was added to the well. After one hour reaction, the well was washed 4 times with the reaction solution, and 50 μl of the platelet lysate diluted 1:2 with the reaction solution was added to the well. Following 2 hours reaction, the well was washed 4 times with the reaction solution, and 50 μl of the reaction solution was added to the well. Subsequently, 25 μl of a test compound solution adjusted to each concentration with the reaction solution was added, and then mixed with 25 μl of biotinylated fibrinogen (Calbiochem, Germany) adjusted to 2 μg/ml with the reaction solution. The mixture was reacted for one hour. After washing 4 times with the reaction solution, 100 μl of alkaline phosphatase-labeled streptoavidin (Gibco BRL, USA) diluted 1:500 with the reaction solution was added to the well. Following 30 minutes reaction, the well was washed 4 times with the wash solution. Next, 50 μl of the NaDPH solution (Invitrogen, former company name: Gibco BRL, USA) was added and reacted for 20 minutes, and then 50 μl of an amplification solution containing diaphorase and alcohol dehydrogenase (Invitrogen, former company name: Gibco BRL, USA) was added. Color was developed for 20 minutes and the reaction was stopped by adding 50 μl of 0.5 M sulfuric acid.
# as §1, with “495” for “450”, “reader” for “reader (Molecular Devices, USA)”
# Sequence of αvβ3 integrin (P06756 31-889 limits assumed): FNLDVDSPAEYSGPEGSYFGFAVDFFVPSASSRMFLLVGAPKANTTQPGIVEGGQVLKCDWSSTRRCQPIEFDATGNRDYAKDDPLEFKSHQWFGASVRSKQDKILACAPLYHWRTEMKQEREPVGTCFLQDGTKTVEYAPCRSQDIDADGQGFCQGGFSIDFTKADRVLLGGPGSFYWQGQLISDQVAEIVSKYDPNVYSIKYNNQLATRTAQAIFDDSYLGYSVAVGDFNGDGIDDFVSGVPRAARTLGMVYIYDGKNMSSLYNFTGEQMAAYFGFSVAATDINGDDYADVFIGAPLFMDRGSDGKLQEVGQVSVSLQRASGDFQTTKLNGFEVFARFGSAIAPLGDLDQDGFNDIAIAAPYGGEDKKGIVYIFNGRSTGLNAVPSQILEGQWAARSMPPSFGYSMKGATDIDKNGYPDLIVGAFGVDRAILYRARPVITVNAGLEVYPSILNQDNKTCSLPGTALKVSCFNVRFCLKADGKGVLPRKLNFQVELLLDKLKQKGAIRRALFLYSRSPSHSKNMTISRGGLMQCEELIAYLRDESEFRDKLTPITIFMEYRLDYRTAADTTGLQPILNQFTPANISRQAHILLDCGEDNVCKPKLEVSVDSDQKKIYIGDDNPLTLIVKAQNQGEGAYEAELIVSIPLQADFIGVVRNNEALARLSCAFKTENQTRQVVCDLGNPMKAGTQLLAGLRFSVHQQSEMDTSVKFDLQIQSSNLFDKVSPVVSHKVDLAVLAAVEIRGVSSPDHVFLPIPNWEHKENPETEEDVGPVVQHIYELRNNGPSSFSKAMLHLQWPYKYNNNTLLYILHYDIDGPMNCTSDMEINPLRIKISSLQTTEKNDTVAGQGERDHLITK
# Sequence of αvβ3 integrin (P06756 891-1048 partner limits assumed): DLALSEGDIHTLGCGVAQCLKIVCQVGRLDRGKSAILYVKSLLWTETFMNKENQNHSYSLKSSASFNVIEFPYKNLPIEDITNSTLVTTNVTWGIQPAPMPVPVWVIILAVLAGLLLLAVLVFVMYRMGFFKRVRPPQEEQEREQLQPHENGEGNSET
# Sequence of αvβ3 integrin (P05106 27-788): as the sequence (P05106 27-788) above
IC50 [1] [nM],IC50 [2] [nM],Compound
0.055,43,"O=C(N[C@@H](CNC(=O)C1CCN(c2cc(F)cc(NC3=NCCCN3)c2)CC1)C(=O)O)OCc1ccccc1 [Ex. 156, (2S)-2-benzyloxycarbonylamino-3-[[1-[5-fluoro-3-(1,4,5,6-tetrahydropyrimidin-2-yl)aminophenyl]piperidin-4-yl]carbonylamino]-propanoic acid]"
0.08,60,"C=CCOC(=O)N[C@@H](CNC(=O)C1CCN(c2cccc(NC3=NCCCN3)c2)CC1)C(=O)O [Ex. 96, (2S)-2-allyloxycarbonylamino-3-[[1-[3-(1,4,5,6-tetrahydropyrimidin-2-yl)aminophenyl]piperidin-4-yl]carbonylamino] propanoic acid]"
0.2,150,"CC(C)(C)COC(=O)N[C@@H](CNC(=O)C1CCN(c2cccc(NC3=NCCCN3)c2)CC1)C(=O)O [Ex. 93, (2S)-2-neopentyloxycarbonylamino-3-[[1-[3-(1,4,5,6-tetrahydropyrimidin-2-yl)aminophenyl]piperidin-4-yl]carbonylamino]propanoic acid]"
0.046,67,"O=C(N[C@@H](CNC(=O)C1CCN(c2cc(NC3=NCC(F)CN3)ccn2)CC1)C(=O)O)OCc1ccccc1 (stereo partly drawn) [Ex. 160, (2S)-2-benzyloxycarbonylamino-3-[[1-[4-(5-fluoro-1,4,5,6-tetrahydropyrimidin-2-yl)aminopyridin-2-yl]piperidin-4-yl]carbonylamino]-propanoic acid]"
0.058,> 1000,"CCCCCCOC(=O)N[C@@H](CCC(=O)N1CCN(c2cccc(NC3=NCC(F)CN3)c2)CC1)C(=O)O (stereo partly drawn) [Ex. 130, (2S)-2-hexyloxycarbonylamino-5-[4-[3-(5-fluoro-1,4,5,6-tetrahydropyrimidin-2-yl)aminophenyl]piperazin-1-yl]-5-oxopentanoic acid]"
0.26,> 1000,CCCCCCCCCCOC(=O)N[C@@H](CCC(=O)N1CCN(c2cccc(NC3=NCC(F)CN3)c2)CC1)C(=O)O (stereo partly shown) [Ex. 133]
0.041,380,"O=C(N[C@@H](CNC(=O)N1CCN(c2cccc(NC3=NCCCN3)c2)CC1)C(=O)O)OCc1ccccc1 [Ex. 145, (2S)-2-benzyloxycarbonylamino-3-[[4-[3-(1,4,5,6-tetrahydropyrimidin-2-yl)aminophenyl]piperazin-1-yl]carbonylamino]-propanoic acid]"
0.056,1600,O=C(N[C@@H](CCC(=O)N1CCN(c2cccc(NC3=NCCCCN3)c2)CC1)C(=O)O)OCc1ccccc1 [Ex. 123]
0.17,420,"O=C(N[C@@H](CCC(=O)N1CCC(c2cccc(NC3=NCCCN3)c2)CC1)C(=O)O)OCc1ccccc1 [Ex. 148, (2S)-2-benzyloxycarbonylamino-5-[4-[3-(1,4,5,6-tetrahydropyrimidin-2-yl)aminophenyl]piperidin-1-yl]-5-oxopentanoic acid]"
5.1,4600,"O=C(NCc1ccccc1)Nc1cccc(N2CCC(C(=O)NC[C@H](NC(=O)OCc3ccccc3)C(=O)O)CC2)c1 [Ex. 30, (2S)-3-{[1-[3-(benzylaminocarbonyl)aminophenyl]-piperidin-4-yl}carbonylamino]-2-(benzyloxycarbonylamino)propanoic acid]"
0.14,750,"O=C(N[C@@H](CCC(=O)N1CCN(c2cc(F)cc(NC3=NCCCN3)c2)CC1)C(=O)O)OCc1ccccc1 [Ex. 158, (2S)-2-benzyloxycarbonylamino-5-[4-[5-fluoro-3-(1,4,5,6-tetrahydropyrimidin-2-yl)aminophenyl]piperazin-1-yl]-5-oxopentanoic acid]"
0.21,> 1000,"CN(C[C@H](NC(=O)OCc1ccccc1)C(=O)O)C(=O)C1CCN(c2cccc(NC3=NCCCN3)c2)CC1 [Ex. 162, (2S)-2-benzyloxycarbonylamino-3-[[1-[3-(1,4,5,6-tetrahydropyrimidin-2-yl)aminophenyl]piperidin-4-yl]-N-methylcarbonylamino]propanoic acid]"
0.057,95,"O=C(N[C@@H](CNC(=O)C1CCN(c2cccc(NC3=NCC(F)(F)CN3)c2)CC1)C(=O)O)OCc1ccccc1 [Ex. 12, (2S)-2-benzyloxycarbonylamino-3-[[1-[3-(5,5-difluoro-1,4,5,6-tetrahydropyrimidin-2-yl)aminophenyl]piperidin-4-yl]carbonylamino]-propanoic acid]"
0.15,340,O=C(N[C@@H](CCC(=O)N1CCN(c2cccc(NC3=NCC(O)CN3)c2)CC1)C(=O)O)OCc1ccccc1 (stereo partly shown) [Ex. 125]
0.1,96,"CCCCCCCCOC(=O)N[C@@H](CNC(=O)C1CCN(c2cccc(NC3=NCCCN3)c2)CC1)C(=O)O [Ex. 89, (2S)-2-octyloxycarbonylamino-3-[[1-[3-(1,4,5,6-tetrahydropyrimidin-2-yl)aminophenyl]piperidin-4-yl]carbonylamino]propanoic acid]"
0.074,37,"O=C(N[C@@H](CNC(=O)C1CCC(c2cccc(NC3=NCCCN3)c2)CC1)C(=O)O)OCc1ccccc1 (single isomer, unassigned) [Ex. 151A]"
0.14,94,"Cc1ccc(N2CCC(C(=O)NC[C@H](NC(=O)OCc3ccccc3)C(=O)O)CC2)cc1NC1=NCCCN1 [Ex. 153, (2S)-2-benzyloxycarbonylamino-3-[[1-[4-methyl-3-(1,4,5,6-tetrahydropyrimidin-2-yl)aminophenyl]piperidin-4-yl]-carbonylamino]propanoic acid]"
0.16,720,O=C(N[C@@H](CCC(=O)N1CCN(c2cccc(NC3=NCCN3)c2)CC1)C(=O)O)OCc1ccccc1 [Ex. 122]

Compound,IC50 [1] [nM],IC50 [2] [nM]
"CCCCOC(=O)N[C@@H](CNC(=O)C1CCN(c2cccc(NC3=NCCCN3)c2)CC1)C(=O)O [Ex. 87, (2S)-2-butoxycarbonylamino-3-[[1-[3-(1,4,5,6-tetrahydropyrimidin-2-yl)aminophenyl]piperidin-4-yl]carbonylamino]propanoic acid]",0.1,110
"CC(C)COC(=O)N[C@@H](CNC(=O)C1CCN(c2cccc(NC3=NCC(F)CN3)c2)CC1)C(=O)O (stereo partly drawn) [Ex. 19, (2S)-2-isobutoxycarbonylamino-3-[[1-[3-(5-fluoro-1,4,5,6-tetrahydropyrimidin-2-yl)aminophenyl]piperidin-4-yl]carbonylamino]-propanoic acid]",0.032,100
